Numbers after ± are expanded uncertainties.
Details: Liquid, Vibrating tube method

COCCOC(C)=O [2-methoxyethyl ethanoate]
Details	mass density [kg/m3]
283.47 K, 100 kPa	1015.98 ± 1
283.47 K, 1000 kPa	1016.6 ± 1
283.47 K, 3000 kPa	1018.02 ± 1
283.47 K, 5000 kPa	1019.43 ± 1
283.47 K, 10000 kPa	1022.82 ± 1.1
283.47 K, 20000 kPa	1029.33 ± 1.1
283.47 K, 25000 kPa	1032.44 ± 1.1
283.47 K, 30000 kPa	1035.47 ± 1.1
283.47 K, 40000 kPa	1041.29 ± 1.1
283.47 K, 50000 kPa	1046.81 ± 1.1
283.47 K, 60000 kPa	1052.11 ± 1.1
283.47 K, 70000 kPa	1057.33 ± 1.1
283.47 K, 80000 kPa	1062.12 ± 1.2
283.47 K, 100000 kPa	1071.34 ± 1.2
283.48 K, 15000 kPa	1026.12 ± 1.1
283.48 K, 90000 kPa	1066.8 ± 1.2
293.45 K, 100 kPa	1005.18 ± 1
293.45 K, 1000 kPa	1005.85 ± 1
293.45 K, 3000 kPa	1007.33 ± 1
293.45 K, 5000 kPa	1008.8 ± 1
293.45 K, 10000 kPa	1012.42 ± 1
293.45 K, 15000 kPa	1015.91 ± 1
293.45 K, 20000 kPa	1019.32 ± 1.1
293.45 K, 25000 kPa	1022.58 ± 1.1
293.45 K, 30000 kPa	1025.8 ± 1.1
293.45 K, 40000 kPa	1031.92 ± 1.1
293.45 K, 50000 kPa	1037.72 ± 1.1
293.45 K, 60000 kPa	1043.26 ± 1.1
293.45 K, 70010 kPa	1048.51 ± 1.1
293.45 K, 90000 kPa	1058.45 ± 1.2
293.46 K, 80010 kPa	1053.61 ± 1.1
293.46 K, 100000 kPa	1063.15 ± 1.2
303.37 K, 100 kPa	993.64 ± 1
303.37 K, 5000 kPa	997.55 ± 1
303.37 K, 25000 kPa	1012.15 ± 1
303.37 K, 90010 kPa	1049.67 ± 1.1
303.38 K, 1000 kPa	994.33 ± 1
303.38 K, 3000 kPa	995.95 ± 1
303.38 K, 10000 kPa	1001.38 ± 1
303.38 K, 15000 kPa	1005.07 ± 1
303.38 K, 20000 kPa	1008.68 ± 1
303.38 K, 30000 kPa	1015.48 ± 1
303.38 K, 40000 kPa	1021.92 ± 1.1
303.38 K, 50000 kPa	1027.99 ± 1.1
303.38 K, 60000 kPa	1033.79 ± 1.1
303.38 K, 70000 kPa	1039.34 ± 1.1
303.38 K, 80000 kPa	1044.62 ± 1.1
303.38 K, 100000 kPa	1054.53 ± 1.2
313.28 K, 25000 kPa	1002.26 ± 1
313.29 K, 100 kPa	982.6 ± 1
313.29 K, 20000 kPa	998.59 ± 1
313.3 K, 1000 kPa	983.35 ± 1
313.3 K, 3000 kPa	985.09 ± 1
313.3 K, 5000 kPa	986.8 ± 1
313.3 K, 10000 kPa	990.88 ± 1
313.3 K, 15000 kPa	994.81 ± 1
313.3 K, 30000 kPa	1005.78 ± 1
313.3 K, 40000 kPa	1012.55 ± 1
313.3 K, 50000 kPa	1018.92 ± 1.1
313.3 K, 60000 kPa	1024.91 ± 1.1
313.3 K, 70000 kPa	1030.73 ± 1.1
313.3 K, 80000 kPa	1036.18 ± 1.1
313.3 K, 90000 kPa	1041.42 ± 1.1
313.3 K, 100000 kPa	1046.43 ± 1.2
323.14 K, 100 kPa	971.53 ± 0.99
323.14 K, 1000 kPa	972.34 ± 0.99
323.14 K, 3000 kPa	974.16 ± 1
323.15 K, 5000 kPa	975.96 ± 1
323.15 K, 10000 kPa	980.29 ± 1
323.15 K, 15000 kPa	984.47 ± 1
323.15 K, 20000 kPa	988.47 ± 1
323.15 K, 25000 kPa	992.34 ± 1
323.15 K, 70000 kPa	1022.15 ± 1.1
323.15 K, 80000 kPa	1027.84 ± 1.1
323.15 K, 90000 kPa	1033.26 ± 1.1
323.15 K, 100000 kPa	1038.48 ± 1.1
323.16 K, 30000 kPa	996.08 ± 1
323.16 K, 40000 kPa	1003.14 ± 1
323.16 K, 50000 kPa	1009.8 ± 1
323.16 K, 60000 kPa	1016.1 ± 1.1
333.01 K, 100 kPa	960.32 ± 0.98
333.01 K, 1000 kPa	961.21 ± 0.98
333.01 K, 3000 kPa	963.17 ± 0.99
333.01 K, 50000 kPa	1000.75 ± 1
333.01 K, 60000 kPa	1007.3 ± 1.1
333.02 K, 5000 kPa	965.08 ± 0.99
333.02 K, 10000 kPa	969.69 ± 0.99
333.02 K, 15000 kPa	974.13 ± 1
333.02 K, 20000 kPa	978.36 ± 1
333.02 K, 25000 kPa	982.46 ± 1
333.02 K, 30000 kPa	986.35 ± 1
333.02 K, 40000 kPa	993.79 ± 1
333.02 K, 70000 kPa	1013.7 ± 1.1
333.02 K, 80000 kPa	1019.56 ± 1.1
333.02 K, 90000 kPa	1025.22 ± 1.1
333.02 K, 100000 kPa	1030.6 ± 1.1
342.87 K, 1000 kPa	949.88 ± 0.97
342.88 K, 100 kPa	948.92 ± 0.97
342.88 K, 3000 kPa	951.95 ± 0.98
342.89 K, 5000 kPa	953.98 ± 0.98
342.89 K, 10000 kPa	958.88 ± 0.98
342.89 K, 15000 kPa	963.56 ± 0.99
342.89 K, 20000 kPa	968.04 ± 1
342.89 K, 25000 kPa	972.33 ± 1
342.9 K, 30000 kPa	976.44 ± 1
342.9 K, 40000 kPa	984.26 ± 1
342.9 K, 50000 kPa	991.52 ± 1
342.9 K, 60000 kPa	998.35 ± 1
342.9 K, 70000 kPa	1005.1 ± 1.1
342.9 K, 80010 kPa	1011.23 ± 1.1
342.9 K, 90000 kPa	1017.07 ± 1.1
342.9 K, 100000 kPa	1022.63 ± 1.1
352.77 K, 10000 kPa	948.28 ± 0.98
352.77 K, 15000 kPa	953.26 ± 0.98
352.77 K, 20000 kPa	958 ± 0.99
352.78 K, 25000 kPa	962.53 ± 0.99
352.78 K, 30000 kPa	966.88 ± 1
352.78 K, 40000 kPa	975.07 ± 1
352.78 K, 50000 kPa	982.69 ± 1
352.78 K, 60000 kPa	989.8 ± 1
352.79 K, 100 kPa	937.57 ± 0.96
352.79 K, 1000 kPa	938.6 ± 0.96
352.79 K, 3000 kPa	940.86 ± 0.97
352.79 K, 5000 kPa	943.03 ± 0.97
352.79 K, 70000 kPa	996.7 ± 1
352.79 K, 80000 kPa	1003.07 ± 1.1
352.79 K, 90000 kPa	1009.1 ± 1.1
352.79 K, 100000 kPa	1014.88 ± 1.1
362.64 K, 100 kPa	926.12 ± 0.95
362.64 K, 1000 kPa	927.21 ± 0.95
362.64 K, 3000 kPa	929.6 ± 0.95
362.64 K, 5000 kPa	931.91 ± 0.96
362.64 K, 15000 kPa	942.8 ± 0.97
362.64 K, 50000 kPa	973.78 ± 1
362.65 K, 10000 kPa	937.52 ± 0.97
362.65 K, 20000 kPa	947.84 ± 0.98
362.65 K, 25000 kPa	952.6 ± 0.99
362.65 K, 30000 kPa	957.19 ± 0.99
362.65 K, 40000 kPa	965.79 ± 1
362.65 K, 60000 kPa	981.22 ± 1
362.65 K, 70000 kPa	988.32 ± 1
362.65 K, 80000 kPa	994.92 ± 1.1
362.65 K, 90000 kPa	1001.16 ± 1.1
362.65 K, 100000 kPa	1007.15 ± 1.1

Reference: the NIST ThermoML archive (doi:10.1021/acs.jced.5b00385)
